{"source": "patent EP2787003A1", "about": "“Antimicrobial peptide produced by marine sponge-derived Bacillus subtilis” (priority 2013, dated 2014)", "key": {"VRE": {"system": "VRE", "assay": "Spot on lawn assay", "format": "cell-based, VRE EC725", "set-up": "key: +, clear halo of growth inhibition; ++: multiple +, increased activity as assessed visually by the increased diameter of the inhibition zone; +++: multiple +, increased activity as assessed visually by the increased diameter of the inhibition zone; ++++: multiple +, increased activity as assessed visually by the increased diameter of the inhibition zone; +++++: multiple +, increased activity as assessed visually by the increased diameter of the inhibition zone; -, no inhibition", "settings": "indicator VRE"}, "C. albicans": {"system": "C. albicans", "assay": "Spot on lawn assay", "format": "cell-based, Candida albicans SC5314", "set-up": "key: +, clear halo of growth inhibition; ++: multiple +, increased activity as assessed visually by the increased diameter of the inhibition zone; +++: multiple +, increased activity as assessed visually by the increased diameter of the inhibition zone; ++++: multiple +, increased activity as assessed visually by the increased diameter of the inhibition zone; +++++: multiple +, increased activity as assessed visually by the increased diameter of the inhibition zone; -, no inhibition", "settings": "indicator C. albicans", "description": "(§1) Antimicrobial activity of isolate MMA7 against the indicator strains was initially assessed with a deferred antagonism assay as described by Phelan et al. (2012). Subsequent testing of supernatants, crude extracts and purified compounds was carried out with a well and/or a spot on lawn assays. Essentially, 5 µl of samples were spotted onto 20 ml agar plates seeded with the indicator strain to a final OD600 of 0.015, or 30 µl aliquots were applied to a 5 mm well made on identical plates."}, "[1]": {"settings": "dried pellets from 1.5 ml RP-HPLC-purified fractions"}, "L. monocytogenes": {"system": "L. monocytogenes", "assay": "Spot on lawn assay", "format": "cell-based, Listeria monocytogenes EGDe", "set-up": "key: +, clear halo of growth inhibition; ++: multiple +, increased activity as assessed visually by the increased diameter of the inhibition zone; +++: multiple +, increased activity as assessed visually by the increased diameter of the inhibition zone; ++++: multiple +, increased activity as assessed visually by the increased diameter of the inhibition zone; +++++: multiple +, increased activity as assessed visually by the increased diameter of the inhibition zone; -, no inhibition", "settings": "indicator L. monocytogenes", "description": "as §1"}, "[2]": {"system": "L. monocytogenes and B. cereus", "assay": "Storage stability, bioactivity by spot on lawn assay", "format": "physicochemical", "excerpt": "Untreated samples were used as controls."}, "MRSA": {"system": "MRSA", "assay": "Spot on lawn assay", "format": "cell-based, MRSA ST 530", "set-up": "key: +, clear halo of growth inhibition; ++: multiple +, increased activity as assessed visually by the increased diameter of the inhibition zone; +++: multiple +, increased activity as assessed visually by the increased diameter of the inhibition zone; ++++: multiple +, increased activity as assessed visually by the increased diameter of the inhibition zone; +++++: multiple +, increased activity as assessed visually by the increased diameter of the inhibition zone; -, no inhibition", "settings": "indicator MRSA"}}}
{"compound": "C=C1NC(=O)[C@@H]2CSC[C@@H](NC(=O)[C@@H]3CS[C@@H](C)[C@H]4NC(=O)[C@H](Cc5ccccc5)NC(=O)[C@H](NC(=O)[C@H](CCCNC(=N)N)NC(=O)[C@@H]5CSC[C@@H](NC(=O)[C@H](CCC(N)=O)NC(=O)[C@@H](NC(=O)[C@@H](NC(=O)/C(=C/C)NC(=O)[C@H](CCCCN)NC(=O)CNC(=O)[C@@H](NC(=O)/C(=C/C)NC(=O)[C@H](C)NC(=O)[C@H](Cc6c[nH]c7ccccc67)NC(=O)C(=O)CC)[C@@H](C)CC)[C@@H](C)CC)C(C)C)C(=O)N[C@@H](C(C)C)C(=O)N[C@@H](CCCCN)C(=O)N[C@@H](CCCCN)C(=O)N5)[C@H](C)SC[C@H](NC4=O)C(=O)NCC(=O)N3)C(=O)N[C@@H](CC(C)C)C(=O)NCC(=O)N[C@H](CSC[C@@H](C(=O)N[C@@H](CC(N)=O)C(=O)O)NC(=O)[C@H](CC(N)=O)NC1=O)C(=O)N2", "note": "[Subtilomycin]", "values": [{"measurement": "Antimicrobial activity, spot on lawn assay", "setting": "VRE", "result": "-"}, {"measurement": "Antimicrobial activity, spot on lawn assay", "setting": "C. albicans", "result": "-"}, {"measurement": "Solubility in water", "setting": "[1]", "result": "fully soluble"}, {"measurement": "Antimicrobial activity, spot on lawn assay", "setting": "L. monocytogenes", "result": "++"}, {"measurement": "Activity after storage", "setting": "[2]; after 5 months storage at -20 °C and -80 °C", "result": "No activity"}, {"measurement": "Activity after storage", "setting": "[2]; stored at 4 °C and room temperature, after two weeks", "result": "lost their activity"}, {"measurement": "Period of storage with retained activity", "setting": "[2]; stored at -20 °C and -80 °C, spot on lawn against L. monocytogenes and B. cereus", "result": "up to 4 months"}, {"measurement": "Antimicrobial activity, spot on lawn assay", "setting": "MRSA", "result": "+"}]}
